Measured values published in patent EP0551518A1, “QUINOLINECARBOXYLIC ACID DERIVATIVE” (NIPPON SHINYAKU COMPANY, LIMITED, priority 1990, dated 1992).
≈ marks a conversion by molar mass, not a printed value. Read-outs that look alike come from different tables or passages of the source.

Assays:
Assay type in all cases: cell-based
[1] = tested on: Bacillus subtilis ATCC 6633; assay: Determination of minimal inhibitory concentration of growth (MIC)-1, agar plate dilution method; conditions: ATCC6633; Bacillus subtilis ATCC 6633; agar plate dilution, 10⁶ CFU/ml, 37°C, 18 hours; read-out: MIC
Description: (§1) Method: MIC was determined by the agar plate dilution method in accordance with the standard protocol of Japan Society of Chemotherapy (cf. Chemotherapy 29 (1), 76-79, 1981). Each bacterial culture obtained by 18-hour incubation in a sensitivity assay bouillon medium at 37°C was diluted to 10⁶ CFU/ml with the same medium. Using a microplanter, a sensitivity assay agar medium containing the test drug was inoculated with the diluted culture and incubated at 37°C for 18 hours. The MIC value was then determined. As reference drugs, 6-fluoro-1-methyl-4-oxo-7-(1-piperazinyl)-4H-[1,3]thiazeto[3,2-a]quinoline-3-carboxylic acid (referred to as control), ciprofloxacin (CPFX) and ofloxacin (OFLX) were used.

[2] = tested on: Enterococcus faecalis ATCC 29212; assay: as above; conditions: ATCC29212; Enterococcus faecalis ATCC 29212; agar plate dilution, 10⁶ CFU/ml, 37°C, 18 hours; read-out: MIC
Description: as §1

[3] = tested on: Escherichia coli KC-14; assay: as above; conditions: Escherichia coli, KC14, 18 h, 10⁶ CFU/ml, 37°C, read-out: MIC
Description: as §1

[4] = tested on: Micrococcus luteus ATCC 9341; assay: as above; conditions: ATCC9341; Micrococcus luteus ATCC 9341; agar plate dilution, 10⁶ CFU/ml, 37°C, 18 hours; read-out: MIC
Description: as §1

[5] = tested on: Proteus vulgaris HX-19; assay: as above; conditions: Proteus vulgaris, HX19, 18 h, Proteus vulgaris HX-19; agar plate dilution, 10⁶ CFU/ml, 37°C, 18 hours; read-out: MIC
Description: as §1

[6] = tested on: Pseudomonas aeruginosa IFO 3445; assay: as above; conditions: Pseudomonas aeruginosa, IFO3445, 18 h, Pseudomonas aeruginosa IFO 3445; agar plate dilution, 10⁶ CFU/ml, 37°C, 18 hours; read-out: MIC
Description: as §1

[7] = tested on: Staphylococcus aureus 209-P JC-1; assay: as above; conditions: Staphylococcus aureus 209-P JC-1, agar plate dilution, 10⁶ CFU/ml, 37°C, 18 hours
Description: as §1

[8] = tested on: Staphylococcus aureus OWPH 1984 (MRSA); assay: as above; conditions: Staphylococcus aureus, MRSA, 18 h, Staphylococcus aureus OWPH 1984 (MRSA); agar plate dilution, 10⁶ CFU/ml, 37°C, 18 hours; read-out: MIC
Description: as §1

[9] = tested on: Staphylococcus aureus OWPH 2125 (MRSA, PCA^r ); assay: as above; conditions: Staphylococcus aureus OWPH 2125 (MRSA, PCA^r), agar plate dilution, 10⁶ CFU/ml, 37°C, 18 hours
Description: as §1

[10] = tested on: Staphylococcus aureus Smith; assay: as above; conditions: Staphylococcus aureus Smith; agar plate dilution, 10⁶ CFU/ml, 37°C, 18 hours; read-out: MIC
Description: as §1

[11] = tested on: Staphylococcus epider-midis IFO 12993; assay: as above; conditions: Staphylococcus, IFO12993, 18 h, Staphylococcus epider-midis IFO 12993; agar plate dilution, 10⁶ CFU/ml, 37°C, 18 hours; read-out: MIC
Description: as §1

[12] = tested on: S. aureus OWPH 1770; assay: Determination of minimal inhibitory concentration (MIC)-2, new quinolone-resistant MRSA; conditions: Staphylococcus aureus, OWPH1770, 18 h; S. aureus OWPH 1770, new quinolone-resistant and methicillin-resistant; same procedure as Test Example 1
Description: as §1
(§2) The antibacterial activity of the compounds obtained in Example 4, Example 25 and Example 26 of the present invention was assayed by the same procedure as in Test Example 1. As reference drugs, 6-fluoro-1-methyl-4-oxo-7-(1-piperazinyl)-4H-[1,3]-thiazeto[3,2-a]quinoline-3-carboxylic acid (referred to as Control), norfloxacin (NFLX) and tosufloxacin (TFLX) were used.

[13] = tested on: S. aureus OWPH 1773; assay: as above; conditions: Staphylococcus aureus, OWPH1773, 18 h; S. aureus OWPH 1773, new quinolone-resistant and methicillin-resistant; same procedure as Test Example 1
Description: as §1, §2

[14] = tested on: S. aureus OWPH 1786; assay: as above; conditions: Staphylococcus aureus, OWPH1786, 18 h; S. aureus OWPH 1786, new quinolone-resistant and methicillin-resistant; same procedure as Test Example 1
Description: as §1, §2

[15] = tested on: S. aureus OWPH 1792; assay: as above; conditions: Staphylococcus aureus, OWPH1792, 18 h; S. aureus OWPH 1792, new quinolone-resistant and methicillin-resistant; same procedure as Test Example 1
Description: as §1, §2

[16] = tested on: S. aureus OWPH 1793; assay: as above; conditions: Staphylococcus aureus, OWPH1793, 18 h; S. aureus OWPH 1793, new quinolone-resistant and methicillin-resistant; same procedure as Test Example 1
Description: as §1, §2

[17] = tested on: S. aureus OWPH 1796; assay: as above; conditions: Staphylococcus aureus, OWPH1796, 18 h; S. aureus OWPH 1796, new quinolone-resistant and methicillin-resistant; same procedure as Test Example 1
Description: as §1, §2

[18] = tested on: S. aureus OWPH 1799; assay: as above; conditions: Staphylococcus aureus, OWPH1799, 18 h; S. aureus OWPH 1799, new quinolone-resistant and methicillin-resistant; same procedure as Test Example 1
Description: as §1, §2

[19] = tested on: S. aureus OWPH 2124; assay: as above; conditions: Staphylococcus aureus, OWPH2124, 18 h; S. aureus OWPH 2124, new quinolone-resistant and methicillin-resistant; same procedure as Test Example 1
Description: as §1, §2

[20] = tested on: S. aureus OWPH 2127; assay: as above; conditions: Staphylococcus aureus, OWPH2127, 18 h; S. aureus OWPH 2127, new quinolone-resistant and methicillin-resistant; same procedure as Test Example 1
Description: as §1, §2

[21] = tested on: S. aureus OWPH 2128; assay: as above; conditions: Staphylococcus aureus, OWPH2128, 18 h; S. aureus OWPH 2128, new quinolone-resistant and methicillin-resistant; same procedure as Test Example 1
Description: as §1, §2

[22] = tested on: S. aureus OWPH 2133; assay: as above; conditions: Staphylococcus aureus, OWPH2133, 18 h; S. aureus OWPH 2133, new quinolone-resistant and methicillin-resistant; same procedure as Test Example 1
Description: as §1, §2

[23] = tested on: S. aureus OWPH 2134; assay: as above; conditions: Staphylococcus aureus, OWPH2134, 18 h; S. aureus OWPH 2134, new quinolone-resistant and methicillin-resistant; same procedure as Test Example 1
Description: as §1, §2

[24] = tested on: S. aureus Sh 2; assay: as above; conditions: Staphylococcus aureus, SH2, 18 h; S. aureus Sh 2, new quinolone-resistant and methicillin-resistant; same procedure as Test Example 1
Description: as §1, §2

[25] = tested on: S. aureus Sh 44; assay: as above; conditions: Staphylococcus aureus, SH44, 18 h; S. aureus Sh 44, new quinolone-resistant and methicillin-resistant; same procedure as Test Example 1
Description: as §1, §2

[26] = tested on: S. aureus Sh 47; assay: as above; conditions: Staphylococcus aureus, SH47, 18 h; S. aureus Sh 47, new quinolone-resistant and methicillin-resistant; same procedure as Test Example 1
Description: as §1, §2

[27] = tested on: S. aureus Sh 54; assay: as above; conditions: Staphylococcus aureus, SH54, 18 h; S. aureus Sh 54, new quinolone-resistant and methicillin-resistant; same procedure as Test Example 1
Description: as §1, §2

[28] = tested on: S. aureus Sh 8; assay: as above; conditions: Staphylococcus aureus, SH8, 18 h; S. aureus Sh 8, new quinolone-resistant and methicillin-resistant; same procedure as Test Example 1
Description: as §1, §2

[29] = Staphylococcus aureus, 209P, 18 h, read-out: MIC
[30] = Staphylococcus aureus, MRSA, 18 h, read-out: MIC

SMILES | MIC [1] | MIC [2] | MIC [3] | MIC [4] | MIC [5] | MIC [6] | MIC [8] | MIC [10] | MIC [11] | MIC [12] | MIC [13] | MIC [14] | MIC [15] | MIC [16] | MIC [17] | MIC [18] | MIC [19] | MIC [20] | MIC [21] | MIC [22] | further results
CC1Sc2c(C(=O)O)c(=O)c3cc(F)c(-c4ccc(N)cc4)c(F)c3n21 (stereo not drawn) [Example 25, 7-(4-Aminophenyl)-6,8-difluoro-1-methyl-4-oxo-4H-[1,3]thiazeto[3,2-a]quinoline-3-carboxylic acid] | ≤ 0.006 mg/L | 0.05 mg/L (≈ 0.134 µM) | 0.05 mg/L (≈ 0.134 µM) | 0.2 mg/L (≈ 0.534 µM) | 0.025 mg/L (≈ 0.0668 µM) | 0.2 mg/L (≈ 0.534 µM) | 0.012 mg/L (≈ 0.0321 µM) | ≤ 0.006 mg/L | 0.006 mg/L (≈ 0.016 µM) | 0.1 mg/L (≈ 0.267 µM) | 0.2 mg/L (≈ 0.534 µM) | 0.39 mg/L (≈ 1.04 µM) | 0.39 mg/L (≈ 1.04 µM) | 0.39 mg/L (≈ 1.04 µM) | 0.2 mg/L (≈ 0.534 µM) | 0.39 mg/L (≈ 1.04 µM) | 0.39 mg/L (≈ 1.04 µM) | 0.39 mg/L (≈ 1.04 µM) | 0.39 mg/L (≈ 1.04 µM) | 0.39 mg/L (≈ 1.04 µM) | MIC [7, 29]: ≤ 0.006 mg/L; MIC [9, 30]: 0.012 mg/L (≈ 0.0321 µM); MIC [23]: 0.2 mg/L (≈ 0.534 µM); MIC [24]: 0.39 mg/L (≈ 1.04 µM); MIC [25]: 0.2 mg/L (≈ 0.534 µM); MIC [26]: 0.39 mg/L (≈ 1.04 µM); MIC [27]: 0.2 mg/L (≈ 0.534 µM); MIC [28]: 0.2 mg/L (≈ 0.534 µM)
CC1Sc2c(C(=O)O)c(=O)c3cc(F)c(-c4ccc(N)cc4)cc3n21 (stereo not drawn) [Example 4, 7-(4-Aminophenyl)-6-fluoro-1-methyl-4-oxo-4H-[1,3]thia-zeto[3,2-a]quinoline-3-carboxylic acid] | ≤ 0.006 mg/L | 0.05 mg/L (≈ 0.14 µM) | 0.025 mg/L (≈ 0.0702 µM) | 0.2 mg/L (≈ 0.561 µM) | 0.012 mg/L (≈ 0.0337 µM) | 0.1 mg/L (≈ 0.281 µM) | ≤ 0.006 mg/L | ≤ 0.006 mg/L | ≤ 0.006 mg/L | 0.2 mg/L (≈ 0.561 µM) | 0.78 mg/L (≈ 2.19 µM) | 1.56 mg/L (≈ 4.38 µM) | 0.78 mg/L (≈ 2.19 µM) | 1.56 mg/L (≈ 4.38 µM) | 0.78 mg/L (≈ 2.19 µM) | 1.56 mg/L (≈ 4.38 µM) | 0.78 mg/L (≈ 2.19 µM) | 1.56 mg/L (≈ 4.38 µM) | 1.56 mg/L (≈ 4.38 µM) | 0.78 mg/L (≈ 2.19 µM) | MIC [7]: 0.012 μ g/ml; MIC [9]: ≤ 0.006 μ g/ml; MIC [23]: 0.78 mg/L (≈ 2.19 µM); MIC [24]: 0.78 mg/L (≈ 2.19 µM); MIC [25]: 0.78 mg/L (≈ 2.19 µM); MIC [26]: 0.78 mg/L (≈ 2.19 µM); MIC [27]: 0.78 mg/L (≈ 2.19 µM); MIC [28]: 0.78 mg/L (≈ 2.19 µM)
CC1Sc2c(C(=O)O)c(=O)c3cc(F)c(N4CCNCC4)cc3n21 (stereo not drawn) [Control, 6-fluoro-1-methyl-4-oxo-7-(1-piperazinyl)-4H-[1,3]thiazeto[3,2-a]quinoline-3-carboxylic acid, reference compound] | 0.1 mg/L (≈ 0.286 µM) | 0.39 mg/L (≈ 1.12 µM) | 0.012 mg/L (≈ 0.0343 µM) | 1.56 mg/L (≈ 4.46 µM) | 0.025 mg/L (≈ 0.0716 µM) | 0.05 mg/L (≈ 0.143 µM) | 0.39 mg/L (≈ 1.12 µM) | 0.1 mg/L (≈ 0.286 µM) | 0.2 mg/L (≈ 0.572 µM) | 50 mg/L (≈ 143 µM) | 100 mg/L (≈ 286 µM) | > 100 mg/L | 100 mg/L (≈ 286 µM) | > 100 mg/L | 25 mg/L (≈ 71.6 µM) | > 100 mg/L | 12.5 mg/L (≈ 35.8 µM) | > 100 mg/L | > 100 mg/L | 25 mg/L (≈ 71.6 µM) | MIC [7, 29]: 0.1 mg/L (≈ 0.286 µM); MIC [9, 30]: 12.5 mg/L (≈ 35.8 µM); MIC [23]: 50 mg/L (≈ 143 µM); MIC [24]: 100 mg/L (≈ 286 µM); MIC [25]: 50 mg/L (≈ 143 µM); MIC [26]: 100 mg/L (≈ 286 µM); MIC [27]: > 100 mg/L; MIC [28]: 100 mg/L (≈ 286 µM)
